The values that follow come from patent publication US8053197B2, “Methods for detecting and treating autoimmune disorders” (Oregon Health & Science University, priority 2004, dated 2011).

One assay relates to Treg compartment. In words: Treg compartment (CD25, Foxp3 mRNA, FoxP3 protein) in naïve mice treated with E2 for 14 days. It is filed as in vivo, C57BL/6 mice. Here is the method:
Quadrant statistics noted are percent of live gate.
FIG. 5 is a graph illustrating real-time PCR analysis of Foxp3 mRNA in CD4+ cells from FIG. 4. Data are presented as Foxp3 relative to housekeeping gene L32. Error bars are standard deviation of triplicate samples.
Cells were pooled from 8-10 mice before sorting.
For E2 therapy, a 3 mm pellet containing 2.5 mg or 15 mg (as indicated) 17β-estradiol (Innovative Research of America, Sarasota, Fla.) was implanted s.c. (dorsally) 7 days prior to immunization (EAE) or 14 days prior to analysis of naïve mice. These pellets are designed to release their contents at a constant rate over 60 days. Control animals were implanted with pellets containing saline. Serum levels of E2 were monitored by RIA.
Single-cell suspensions were prepared from spleens and RBCs lysed. Non-immunized mice receiving E2 pellets were sacrificed 14 days after implantation, while immunized mice were sacrificed at the peak of EAE disease severity, approximately 17 days after induction. […]
For real-time RT-PCR analysis, total RNA was prepared using the Total RNeasy kit (Qiagen, Germantown, Md.) and cDNA was prepared using random hexamer primers (Invitrogen, Grand Island, N.Y.). Foxp3 message expression was quantified using the ABI 7000 Real-Time PCR System (Applied Biosystems, Foster City, Calif.). Amplification was performed in a total volume of 25 μl for 40 cycles and products were detected using SYBR Green I dye (Molecular Probes, Eugene, Oreg.). Samples were run in triplicate and relative expression level was determined by normalization to L32 with results presented as relative expression (RE) units. […] For analysis of FoxP3 protein, cells were washed in PBS then lysed and sonicated in lysis buffer {25 mM Tris pH 8.5, 2% lithium dodecyl sulfate, 1 mM EDTA, 10 mM sodium fluoride, 1 mM sodium orthovanadate, and 1× Complete protease inhibitors (Roche Diagnostics, Mannheim, Germany)} and quantified by BCA (Pierce, Rockford, Ill.). […] FoxP3 was detected with rabbit-anti-FoxP3 antiserum and standard chemiluminescence. […]

Assay [1] has as its system CD4+CD25− responder cells. In words: Suppressive activity of CD4+CD25+ T cells from treated mice on CD4+CD25− responder cells (I50). It is filed as in vivo, C57BL/6 mice. Here is the method: FIG. 7 illustrates the suppressive activity of CD4+CD25+ T cells recovered from placebo, E2-treated and pregnant mice was measured by their ability to suppress the growth of CD4+CD25−responder cells. Varying numbers of sorted CD4+CD25+ Treg cells from placebo-treated, E2-treated, and pregnant mice were co-cultured in triplicate for 3 days without (0:1 ratio) or with a constant number (5×10^4) of CD4+CD25−responder cells and APC (10^5) from naïve donors, and 0.5 μg/ml anti-CD3 mAb. Responder cells were also cultured alone (1:0 ratio). Proliferation was monitored by uptake of [^3H]-thymidine (1 μCi/well) for the last 12 h of culture. Data are representative of three independent experiments. *I50 values (% CD4+CD25+ cells that could inhibit the proliferation of anti-CD3-activated CD4+CD25−responder cells by 50%) represent the average of two or more independent experiments.
Female C57BL/6 mice were pretreated with 17β-estradiol (E2) or placebo for 7 days prior to challenge with MOG-35-55 peptide/CFA/PM to induce EAE. At the peak of EAE in the placebo group (day 15 after induction), cells were harvested from both the placebo-treated mice (score=4.5-5) and E2-treated mice (score=0). Cell mixtures were combined within each treatment group. […]

The subject of the next assay is Foxp3. In words: E2 induction of Foxp3 in vitro in purified CD4+CD25− T cells (real-time RT-PCR). It counts as cell-based, mice. Here is the method:
FIG. 1 is a graph illustrating real-time RT-PCR analysis of Foxp3 expression in vitro in purified (>99%) CD4+CD25− T cells. E2 in combination with TCR stimulation by anti-CD3 antibody for 24 hours induced Foxp3 mRNA approximately 3-fold over levels in untreated cells or in anti-CD3 stimulated cells in the absence of E2. Foxp3 levels are shown relative to the housekeeping gene L32. Error bars are standard deviation of triplicate samples. One representative result of three is shown.
The capacity of E2 to induce Foxp3 expression in vitro in purified (>99%) CD4+CD25− T cells was tested. […]
For real-time RT-PCR analysis, total RNA was prepared using the Total RNeasy kit (Qiagen, Germantown, Md.) and cDNA was prepared using random hexamer primers (Invitrogen, Grand Island, N.Y.). Foxp3 message expression was quantified using the ABI 7000 Real-Time PCR System (Applied Biosystems, Foster City, Calif.). Amplification was performed in a total volume of 25 μl for 40 cycles and products were detected using SYBR Green I dye (Molecular Probes, Eugene, Oreg.). Samples were run in triplicate and relative expression level was determined by normalization to L32 with results presented as relative expression (RE) units. […] FoxP3 was detected with rabbit-anti-FoxP3 antiserum and standard chemiluminescence. […]
A general note: In qPCR the cycle at which signal appears reflects the starting amount.

As for `C[C@]12CC[C@@H]3c4ccc(O)cc4CC[C@H]3[C@@H]1CC[C@@H]2O` [E2, 17β-estradiol], in the assay with Treg compartment, the FoxP3 protein result is “increase”, the “Foxp3 mRNA in CD4+ cells” value is listed as “increase” and the “increase in the fraction of CD25+ cells among all CD4+ cells versus untreated mice” value is listed as 43%. Also, the “I50 of Treg suppressive activity” value in assay [1] (E2-protected mice challenged for EAE, day 15, control mice with EAE 30%) was determined as 2.5%. Besides, the “average I50 value for CD4+CD25+ Treg cells” value in assay [1] (Treg from E2-treated mice without EAE, naïve mice 22.4±[…], n=3 experiments) stood at 14.7±0.3%. Besides, the “fraction of CD25+ cells over TCR stimulation alone” value in the assay on Foxp3 was “increased”. Moreover, the “Foxp3 mRNA induction over levels in untreated cells” value in the assay on Foxp3 (E2 in combination with anti-CD3 antibody for 24 hours, relative to L32) is reported as “approximately 3 fold”.
